Source: patent US11197885B2, “Collagen enhancing agent made from low acyl gellan gum, methods of making and methods of using the same” (The University of Toledo, priority 2015, dated 2021)

Assays:
[1] = system: pCREB in mouse cortical neurons; assay: nuclear pCREB in midi-GAGR-treated mouse cortical neurons pre-treated with signaling inhibitors; assay type: cell-based; details: inhibitor 6 h (SU5402 4 μM, staurosporine 3 nM, U0126 10 μM, LY294002 20 μM, KN-62 10 μM, PF-573228 1 μM), then 1 μM midi-GAGR 48 h
Method: (§1) To analyze the effect of polysaccharides on neurite outgrowth, primary mouse cortical neurons were treated with vehicle (H2O) or 1 μM of dextran, alginate, or midi-GAGR, 0.01 μM of HA-GAGR, or 0.1 μM of LA-GAGR for 2 days prior to immunocytochemistry using anti-α-tubulin antibody and secondary Alexa488nm antibody. An etched grid coverslip containing 200 numbered boxes was used to select neurons objectively for image acquisition and analysis. A total of 24 boxes were randomly selected per treatment group. All the neurons having total neurite length longer than 4 times of the diameter of neuron cell body were chosen for image analysis. The total length of the neurites of each neuron was measured using Metamorph and used to calculate average total neurite length. To examine the effect of polysaccharides on the phosphorylation (activation) of nuclear CREB, neurons were stained with anti-pCREB antibody (Abcam & Santa Cruz biotechnologies, 2nd antibody with Alexa568nm), anti-α-tubulin antibody (Sigma, 2nd antibody with Alexa488nm), and DAPI (Sigma) after two-day incubation with vehicle (H2O) or 1 μM of dextran, alginate, or midi-GAGR, 0.01 μM of HA-GAGR, or 0.1 μM of LA-GAGR. […] The images of neurons on coverslips were taken by confocal microscopy at the same gain (850), offset (−0.01), and exposure time (2 sec). The intensity of the staining of nuclear pCREB was measured using Metamorph and used to calculate average intensity. In addition, the phosphorylation of CREB in the cytosols of mouse cortical neurons treated with polysaccharides were detected by immunoblotting. Primary mouse neurons were dissected from 16 mouse embryos (E17) and plated in the wells of 6-well plates (1×10^6 cells/well), differentiated for 6 days, and treated with polysaccharides for 48 h. Then, neurons were harvested and lysed in 1% Igepal CA-630 (Sigma)-containing PMEE buffer plus protease and phosphatase inhibitor cocktails (Sigma) for protein extraction. Extracted proteins were separated in 4-12% NuPAGE Bis-Tris protein gels (Life Technologies) and transferred to nitrocellulose membrane (GE Healthcare Life Science, Pittsburgh, Pa.) using a semidry blotter (Hoefer, Inc., San Francisco, Calif.). The protein bands on blots recognized by anti-pCREB (Santa Cruz Biotechnologies) and anti-CREB antibodies were detected on Amersham Hyperfilm™ ECL films (GE Healthcare Life Science) using SuperSignal® West Pico Chemiluminescent Substrate (Thermo Scientific).
Pharmacological agents were used to inhibit signaling molecules downstream of FGFR1 that mediate CREB phosphorylation. […] PF-573228 (PF, 1 μM) that inhibits FAK which sits at the bottleneck of the signaling pathway downstream of NCAM180 was also included to examine whether NCAM180 is involved in midi-GAGR-mediated CREB phosphorylation or not. […]

[2] = system: rat cortical neurons (E17, DIV6); assay: FGFR1 dependence of neuroprotection against 4HNE, LIVE/DEAD assay; assay type: cell-based
From the text: The protective effect of polysaccharides on primary cortical neurons from 4HNE, H2O2, and Aβ42 peptide (Sigma) was examined using LIVE/DEAD® Viability/Cytotoxicity Assay Kit (Life Technologies). Female pregnant mice (BALB/C, E17, Charles River Laboratories International, Inc.) or female pregnant SD rats (E17, bred in house) were anesthetized and dissected to obtain 8-9 embryos per animal. Cortical neurons were isolated from embryonic brains and differentiated on poly-L-lysine-coated coverslips in B27/neurobasal medium. For drug treatment before free radical treatment, mouse cortical neurons (5 days in vitro [DIV5]) were treated with vehicle (H2O), 1 μM of 5 kD dextran (Sigma), alginate (Sigma), midi-GAGR, 0.01 μM of high acyl gellan gum (HA-GAGR, CPKelco Co.), or 0.1 μM of LA-GAGR for 24 h and then treated with 10 μM 4HNE or 50 μM H2O2 for 24 h, or 2 μM Aβ42 peptide for 48 h prior to viability/cytotoxicity assay. For drug co-treatment with free radicals, rat cortical neurons (DIV5) were treated with 1 μM of dextran, alginate, or midi-GAGR, 0.01 μM of HA-GAGR, or 0.1 μM of LA-GAGR along with either 10 μM 4HNE (24 h) or 2 μM Aβ42 peptide (48 h). […]

[3] = ABTS Antioxidant Assay Kit; assay type: biochemical; details: 10 μM
Method: The antioxidant capacity of midi-GAGR was measured using ABTS Antioxidant Assay Kit (Zenbio Co.). […] This was slightly stronger than antioxidant capacity of LA-GAGR (10 μM LA-GAGR=15.4 μM trolox) (Table 2).

[4] = system: mouse cortical neurons (E17, DIV5); assay: LIVE/DEAD assay, pre-treatment of mouse cortical neurons before 4HNE, H2O2 or Aβ42; assay type: cell-based
From the text: The protective effect of polysaccharides on primary cortical neurons from 4HNE, H2O2, and Aβ42 peptide (Sigma) was examined using LIVE/DEAD® Viability/Cytotoxicity Assay Kit (Life Technologies). Female pregnant mice (BALB/C, E17, Charles River Laboratories International, Inc.) or female pregnant SD rats (E17, bred in house) were anesthetized and dissected to obtain 8-9 embryos per animal. Cortical neurons were isolated from embryonic brains and differentiated on poly-L-lysine-coated coverslips in B27/neurobasal medium. For drug treatment before free radical treatment, mouse cortical neurons (5 days in vitro [DIV5]) were treated with vehicle (H2O), 1 μM of 5 kD dextran (Sigma), alginate (Sigma), midi-GAGR, 0.01 μM of high acyl gellan gum (HA-GAGR, CPKelco Co.), or 0.1 μM of LA-GAGR for 24 h and then treated with 10 μM 4HNE or 50 μM H2O2 for 24 h, or 2 μM Aβ42 peptide for 48 h prior to viability/cytotoxicity assay. For drug co-treatment with free radicals, rat cortical neurons (DIV5) were treated with 1 μM of dextran, alginate, or midi-GAGR, 0.01 μM of HA-GAGR, or 0.1 μM of LA-GAGR along with either 10 μM 4HNE (24 h) or 2 μM Aβ42 peptide (48 h). To examine the extent to which midi-GAGR-mediated neuroprotection depends on FGFR1, rat cortical neurons (E17, DIV5) were pre-treated with 4 μM SU5402 (Sigma) for 6 h and treated with 10 μM 4HNE and either vehicle or 1 μM midi-GAGR for 24 h prior to cell viability/cytotoxicity assay. As controls, neurons were treated with SU5402, midi-GAGR, 4HNE, 4HNE plus midi-GAGR, or SU5402 plus midi-GAGR.
For cell viability/cytotoxicity measurement, neurons on glass coverslips were incubated in 1×PBS containing 2 μM calcein AM (live cells: green) and 4 μM ethidium homodimer-1 (dead cells: red) for 10 min at 37° C. Immediately thereafter, neurons were imaged by 10×objective using a fluorescence Olympus IX71 microscope (Olympus America Inc., Center Valley, Pa.) and, for the acquisition of high-quality images, using TCS SP5 multi-photon laser scanning confocal microscope.
Midi-GAGR attenuated neurite atrophy caused by free reactive radicals. It is now shown herein that midi-GAGR protect neurons from the death caused by free radical insults. The extent to which midi-GAGR protects the primary culture of rodent cortical neurons from 4HNE and H2O2 was determined. In addition to the radicals, amyloid β peptide (Aβ42) was also tested. Aβ42 peptide is a major causative factor that causes oxidative stress and neuron death. Mouse cortical neurons (E17, DIV5) were treated with 10 μM 4HNE (24 h), 50 μM H2O2 (24 h), or 2 μM Aβ42 peptide (48 h) after the treatment of the neurons with vehicle (H2O), midi-GAGR (1 μM), dextran (1 μM), alginate (1 μM), LA-GAGR (0.1 μM), or HA-GAGR (0.01 μM) for 24 h. The concentrations of 4HNE, H2O2, and Aβ42 peptide were chosen according to their patho-physiological concentrations. The concentrations of LA-GAGR and HA-GAGR were chosen because, within the same volume, the total numbers of sugar units in the polysaccharides at the concentrations are close to that of 1 μM midi-GAGR. The viability of neurons was assessed using LIVE/DEAD® Viability/Cytotoxicity Assay Kit in which membrane-permeant calcein AM is cleaved by esterase in live cells, thus yielding green fluorescence, and membrane-impermeant ethidium homodimer-1 stains the nucleic acids of plasma membrane-compromised cells with red fluorescence. The numbers of green (live) and red (dead) neurons in each condition were counted using Metamorph. Although the intensities of green fluorescent signals in neurons treated with either free radicals or Aβ42 peptide were weak, the neurons were included in the counting. About 8-9% of vehicle-treated neurons died during the process of live/dead cell assay (FIGS. 23A-23F, FIGS. 24A-24C).

[5] = system: primary mouse cortical neurons (E17, DIV4); assay: neurite outgrowth in primary mouse cortical neurons; assay type: cell-based; details: 2 days; midi-GAGR, dextran, alginate 1 μM; LA-GAGR 0.1 μM; HA-GAGR 0.01 μM
Method: as §1, with “Then, neurons were harvested and lysed in 1% Igepal CA-630 (Sigma)-containing PMEE buffer plus protease and phosphatase inhibitor cocktails (Sigma) for protein extraction. Extracted proteins were separated in 4-12% NuPAGE Bis-Tris protein gels (Life Technologies) and transferred to nitrocellulose membrane (GE Healthcare Life Science, Pittsburgh, Pa.) using a semidry blotter (Hoefer, Inc., San Francisco, Calif.).” left out

[6] = system: pCREB in mouse cortical neurons; assay: nuclear pCREB immunostaining in mouse cortical neurons (Example 4); assay type: cell-based; details: 48 h; midi-GAGR, alginate, dextran 1 μM; LA-GAGR 0.1 μM; HA-GAGR 0.01 μM
Method: (§2) To analyze the effect of polysaccharides on neurite outgrowth, primary mouse cortical neurons were treated with vehicle (H2O) or 1 μM of dextran, alginate, or midi-GAGR, 0.01 μM of HA-GAGR, or 0.1 μM of LA-GAGR for 2 days prior to immunocytochemistry using anti-α-tubulin antibody and secondary Alexa488nm antibody. An etched grid coverslip containing 200 numbered boxes was used to select neurons objectively for image acquisition and analysis. A total of 24 boxes were randomly selected per treatment group. All the neurons having total neurite length longer than 4 times of the diameter of neuron cell body were chosen for image analysis. The total length of the neurites of each neuron was measured using Metamorph and used to calculate average total neurite length. […] The intensity of the staining of nuclear pCREB was measured using Metamorph and used to calculate average intensity. In addition, the phosphorylation of CREB in the cytosols of mouse cortical neurons treated with polysaccharides were detected by immunoblotting. […] The protein bands on blots recognized by anti-pCREB (Santa Cruz Biotechnologies) and anti-CREB antibodies were detected on Amersham Hyperfilm™ ECL films (GE Healthcare Life Science) using SuperSignal® West Pico Chemiluminescent Substrate (Thermo Scientific). […]

[7] = system: pCREB in mouse cortical neurons; assay: pCREB immunoblotting of cytosols of mouse cortical neurons; assay type: cell-based; details: 48 h, same concentrations
Method: as §2

[8] = system: differentiated dopaminergic PC12 cells exposed to 30 μM 6-OHDA; assay: LIVE/DEAD viability of differentiated PC12 cells exposed to 6-OHDA; assay type: cell-based; details: 1 μM for 6 h, then 30 μM 6-OHDA for 24 h
Method: Differentiated dopaminergic PC12 cells and primary mouse embryonic cortical neurons (E17, DIV14) were treated with mock (H2O) or 1 μM of dextran, alginate, HA-GAGR, or midi-GAGR for 6 h and insulated by oxidative stressors (30 μM 6-OHDA [PC12] and 10 μM amyloid β peptide [cortical neurons]) for 24 h.

[9] = system: phosphorylated CREB in differentiated PC12 cells; assay: nuclear p-CREB immunostaining in differentiated PC12 cells; assay type: cell-based; details: 1 μM, 24 h
Method: (§3) Differentiated PC12 cells and mouse embryonic cortical neurons (E17, DIV14) were treated with mock, dextran, alginate, HA-GAGR, or midi-GAGR (1 μM) for 24 h and fixed in 3.7% paraformaldehyde. The fixed cells and neurons were immunostained with antibodies against α-tubulin and phosopho-CREB (p-CREB) along with DAPI (nucleus).

[10] = system: phosphorylated CREB in mouse embryonic cortical neurons; assay: nuclear p-CREB immunostaining in embryonic cortical neurons (Example 2); assay type: cell-based; details: 1 μM, 24 h
Method: as §3

[11] = pre-treatment 24 h (midi-GAGR, alginate, dextran 1 μM; LA-GAGR 0.1 μM; HA-GAGR 0.01 μM), then 10 μM 4HNE 24 h
[12] = pre-treatment 24 h (same concentrations), then 2 μM Aβ42 peptide 48 h
[13] = pre-treatment 24 h (same concentrations), then 50 μM H2O2 24 h

CN([C@@H](Cc1ccc(OS(=O)(=O)c2cccc3cnccc23)cc1)C(=O)N1CCN(c2ccccc2)CC1)S(=O)(=O)c1cccc2cnccc12 [KN-62]
effect of inhibitor pre-treatment on average intensity of pCREB in midi-GAGR-treated neurons [1]: decreased slightly but still statistically significantly

CS(=O)(=O)c1cccc(CNc2nc(Nc3ccc4c(c3)CCC(=O)N4)ncc2C(F)(F)F)c1 [PF-573228]
effect of inhibitor pre-treatment on average intensity of pCREB in midi-GAGR-treated neurons [1]: did not decrease

Cc1c[nH]c(/C=C2\C(=O)Nc3ccccc32)c1CCC(=O)O [SU5402]
effect of inhibitor pre-treatment on average intensity of pCREB in midi-GAGR-treated neurons [1]: significantly decreased | percent of dead cells ([2]; SU5402 4 μM alone, no 4HNE): did not increase | percent of dead cells ([2]; SU5402 4 μM pre-treatment 6 h, then 10 μM 4HNE): ~80%

N#CC(=C(/N)Sc1ccccc1N)/C(C#N)=C(\N)Sc1ccccc1N [U0126]
effect of inhibitor pre-treatment on average intensity of pCREB in midi-GAGR-treated neurons [1]: significantly decreased

[D-Glc(β1→4)D-GlcA(β1→4)D-Glc(β1→4)L-Rha(α1→3)]n [LA-GAGR]
antioxidant capacity, ABTS assay [3]: 15.4 μM Trolox | percent of neuron death [4, 11]: 10% | percent of neuron death [4, 12]: ~10% | percent of neuron death [4, 13]: ~13% | fold change in average total neurite length vs vehicle [5]: ~1.6 fold | average intensity of nuclear pCREB vs vehicle [6]: ~2 fold | levels of pCREB by immunoblotting vs control [7]: significantly increased

alginate
6-OHDA-induced cell death [8]: did not | increase in levels of nuclear p-CREB [9]: not significantly increased | increase in levels of nuclear p-CREB [10]: not significantly increased | percent of neuron death [4, 11]: reduced | percent of neuron death [4, 12]: did not decrease | percent of neuron death [4, 13]: did not reduce | fold change in average total neurite length vs vehicle [5]: did not enhance neuritogenesis
